Reference: ChEMBL document CHEMBL2016551, “Synthesis and SAR studies of novel heteroaryl fused tetracyclic indole-diamide compounds: potent allosteric inhibitors of the hepatitis C virus NS5B polymerase” (Bioorg Med Chem Lett, 2012)

Tests used:
[1] = Inhibition of Hepatitis C virus NS5B RNA-dependent RNA polymerase; set-up: species or system Hepacivirus hominis
[2] = target: RNA-directed RNA polymerase (Hepacivirus hominis, UniProt O39930, P495L); assay: Inhibition of Hepatitis C virus NS5B RNA-dependent RNA polymerase P495L mutant
Sequence of RNA-directed RNA polymerase (O39930 entry or part of it P495L): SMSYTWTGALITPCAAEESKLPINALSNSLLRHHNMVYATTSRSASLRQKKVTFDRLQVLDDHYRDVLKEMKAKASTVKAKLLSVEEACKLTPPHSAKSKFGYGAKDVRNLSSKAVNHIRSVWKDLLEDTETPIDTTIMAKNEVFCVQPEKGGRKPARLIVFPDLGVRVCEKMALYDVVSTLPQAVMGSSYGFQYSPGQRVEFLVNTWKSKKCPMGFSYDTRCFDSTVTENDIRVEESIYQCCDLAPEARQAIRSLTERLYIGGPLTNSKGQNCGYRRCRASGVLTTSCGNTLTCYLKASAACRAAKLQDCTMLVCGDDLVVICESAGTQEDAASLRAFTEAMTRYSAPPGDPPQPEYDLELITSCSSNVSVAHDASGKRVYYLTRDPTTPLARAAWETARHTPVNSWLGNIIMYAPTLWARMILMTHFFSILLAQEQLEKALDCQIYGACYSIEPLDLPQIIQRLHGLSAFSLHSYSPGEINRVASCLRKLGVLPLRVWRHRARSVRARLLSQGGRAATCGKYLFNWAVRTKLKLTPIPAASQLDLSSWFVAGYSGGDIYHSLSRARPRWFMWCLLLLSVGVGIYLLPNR

[3] = Cytotoxicity against human HuH7 cells; assay type: cell-based; conditions: Huh-7 cells
[4] = tested on: Hepatitis C virus; assay: Antiviral activity against Hepatitis C virus genotype 1a infected in human HuH7 cells by luciferase reporter gene analysis; assay type: functional, organism-based, Hepacivirus hominis; conditions: subtype 1a, Huh-7
[5] = tested on: Hepatitis C virus; assay: Antiviral activity against Hepatitis C virus genotype 1b infected in human HuH7 cells by luciferase reporter gene analysis; assay type: functional, organism-based, Hepacivirus hominis; conditions: Huh-7
[6] = Oral bioavailability in rat; assay type: ADME, organism-based; conditions: in vivo
[7] = Clearance in rat at 2 mg/kg, iv; assay type: ADME, organism-based; set-up: dose 2 mg/kg, route intravenous; conditions: in vivo
[8] = AUC in rat; assay type: ADME, organism-based; conditions: plasma
[9] = Half life in rat at 2 mg/kg, iv; assay type: ADME, organism-based; set-up: dose 2 mg/kg, route intravenous; conditions: in vivo

## O=C(O)/C=C/c1ccc(NC(=O)C2(NC(=O)c3ccc4c(C5CCCCC5)c5n(c4c3)CCCc3ccccc3-5)CCCC2)cc1
[1]
  IC50: 34 nM
[2]
  IC50: 3390 nM
[3]
  CC50: 30000 nM
[4]
  EC50: 71 nM
[5]
  EC50: 14 nM

## O=C(O)/C=C/c1ccc(NC(=O)C2(NC(=O)c3ccc4c(C5CCCCC5)c5n(c4c3)CCCc3ocnc3-5)CCCC2)cc1
[1]
  IC50: 44 nM
[2]
  IC50: 5850 nM
[4]
  EC50: 380 nM
[5]
  EC50: 78 nM

## O=C(O)/C=C/c1ccc(NC(=O)C2(NC(=O)c3ccc4c(C5CCCCC5)c5n(c4c3)CCCc3occc3-5)CCCC2)cc1
[1]
  IC50: 34 nM
[2]
  IC50: 3720 nM
[5]
  EC50: < 69 nM

## O=C(O)/C=C/c1ccc(NC(=O)C2(NC(=O)c3ccc4c(C5CCCCC5)c5n(c4c3)CCCc3nc[nH]c3-5)CCCC2)cc1
[1]
  IC50: 228 nM
[4]
  EC50: 2510 nM
[5]
  EC50: 738 nM

## Cc1nc2c(s1)CCCn1c-2c(C2CCCCC2)c2ccc(C(=O)NC3(C(=O)Nc4ccc(/C=C/C(=O)O)cc4)CCCC3)cc21
[1]
  IC50: 108 nM
[2]
  IC50: 5100 nM
[4]
  EC50: 4190 nM
[5]
  EC50: 683 nM

## Nc1nc2c(s1)CCCn1c-2c(C2CCCCC2)c2ccc(C(=O)NC3(C(=O)Nc4ccc(/C=C/C(=O)O)cc4)CCCC3)cc21
[1]
  IC50: 250 nM
[2]
  IC50: 4840 nM
[4]
  EC50: 3780 nM
[5]
  EC50: 1810 nM

## O=C(O)/C=C/c1ccc(NC(=O)C2(NC(=O)c3ccc4c(C5CCCCC5)c5n(c4c3)CCCc3nccnc3-5)CCCC2)cc1
[1]
  IC50: 24 nM
[2]
  IC50: 2280 nM
[4]
  EC50: 89 nM
[5]
  EC50: 24 nM

## O=C(O)/C=C/c1ccc(NC(=O)C2(NC(=O)c3ccc4c(C5CCCCC5)c5n(c4c3)CCCc3ncccc3-5)CCCC2)cc1
[1]
  IC50: 30 nM
[2]
  IC50: 1730 nM
[6]
  bioavailability: 4%
[3]
  CC50: 63000 nM
[7]
  clearance: 7.2 mL/min/kg
[8]
  AUC: 1.7 µM·h
[4]
  EC50: 35 nM
[9]
  half-life: 1 h
[5]
  EC50: 9 nM

## O=C(O)/C=C/c1ccc(NC(=O)C2(NC(=O)c3ccc4c(C5CCCCC5)c5n(c4c3)CC(=O)Nc3cccnc3-5)CCCC2)cc1
[1]
  IC50: 24 nM
[2]
  IC50: 3100 nM
[6]
  bioavailability: < 1%
[3]
  CC50: 45000 nM
[7]
  clearance: 8.7 mL/min/kg
[4]
  EC50: 39 nM
[5]
  EC50: 12 nM

## O=C(O)/C=C/c1ccc(NC(=O)C2(NC(=O)c3ccc4c(C5CCCCC5)c5n(c4c3)CCOc3cccnc3-5)CCCC2)cc1
[1]
  IC50: 15 nM
[2]
  IC50: > 600 nM
[4]
  EC50: 157 nM
[5]
  EC50: 22 nM

## O=C(O)/C=C/c1ccc(NC(=O)C2(NC(=O)c3ccc4c(C5CCCCC5)c5n(c4c3)CCOc3ncccc3-5)CCCC2)cc1
[1]
  IC50: 14 nM
[2]
  IC50: 2800 nM
[4]
  EC50: 28 nM
[5]
  EC50: 21 nM
